Experimental data reported in ChEMBL document CHEMBL3997821, “Design, synthesis and evaluation of novel pyrazolo-pyrimido[4,5-d]pyrimidine derivatives as potent antibacterial and biofilm inhibitors” (Bioorg Med Chem Lett, 2017).
In brackets after ≈: the same amount, converted by molar mass. Activity calls are given as the source filed them. The calls are words filed in the database; no cut-off is given here.

Columns and labels:
[1] = tested on: Pseudomonas aeruginosa; test: Antibacterial activity against Pseudomonas aeruginosa MTCC 2453 after 24 hrs by well diffusion method; type: functional; conditions: MTCC 2453, 24 h
[2] = tested on: Bacillus subtilis; test: Bactericidal activity against Bacillus subtilis MTCC 121 after 24 hrs by serial dilution method; type: functional; conditions: MTCC 121, 24 h
[3] = tested on: Raoultella planticola; test: Antibacterial activity against Klebsiella planticola MTCC 530 after 24 hrs by well diffusion method; type: functional; conditions: MTCC 530, 24 h
[4] = tested on: Bacillus subtilis; test: Antibiofilm activity against Bacillus subtilis MTCC 121 after 24 hrs by crystal violet staining based assay; type: functional; conditions: MTCC 121, 24 h
[5] = tested on: Staphylococcus aureus; test: Bactericidal activity against Staphylococcus aureus MTCC 96 after 24 hrs by serial dilution method; type: functional; conditions: MTCC 96, 24 h
[6] = tested on: Micrococcus luteus; test: Induction of ROS generation in Micrococcus luteus MTCC 2470 mature biofilms at 0.5 to 2 ug/ml after 24 hrs by DCFH-DA staining based fluorometric assay; type: functional
[7] = tested on: Staphylococcus aureus; test: Ratio of MBC to MIC for Staphylococcus aureus MTCC 96; type: functional
[8] = tested on: Micrococcus luteus; test: Induction of membrane permeability in Micrococcus luteus MTCC 2470 assessed as protein leakage at 1 to 2 times antibacterial MIC up to 12 hrs by Bradford protein assay; type: functional
[9] = tested on: Escherichia coli; test: Antibacterial activity against Escherichia coli MTCC 739 after 24 hrs by well diffusion method; type: functional; conditions: MTCC 739, 24 h
[10] = tested on: Bacillus subtilis; test: Antibacterial activity against Bacillus subtilis MTCC 121 after 24 hrs by well diffusion method; type: functional; conditions: MTCC 121, 24 h
[11] = tested on: Staphylococcus aureus; test: Antibiofilm activity against Staphylococcus aureus MLS16 MTCC 2940 after 24 hrs by crystal violet staining based assay; type: functional; conditions: MLS16 MTCC 2940, 24 h
[12] = tested on: Micrococcus luteus; test: Bactericidal activity against Micrococcus luteus MTCC 2470 after 24 hrs by serial dilution method; type: functional; conditions: MTCC 2470, 24 h
[13] = tested on: Staphylococcus aureus; test: Antibacterial activity against Staphylococcus aureus MLS16 MTCC 2940 after 24 hrs by well diffusion method; type: functional; conditions: MLS16 MTCC 2940, 24 h
[14] = tested on: Micrococcus luteus; test: Ratio of MBC to MIC for Micrococcus luteus MTCC 2470; type: functional
[15] = tested on: Micrococcus luteus; test: Induction of membrane permeability in Micrococcus luteus MTCC 2470 assessed as protein leakage at 1 to 2 times antibacterial MIC after 12 to 24 hrs by Bradford protein assay; type: functional
[16] = tested on: Staphylococcus aureus; test: Antibiofilm activity against Staphylococcus aureus MTCC 96 after 24 hrs by crystal violet staining based assay; type: functional; conditions: MTCC 96, 24 h
[17] = tested on: Micrococcus luteus; test: Antibiofilm activity against Micrococcus luteus MTCC 2470 after 24 hrs by crystal violet staining based assay; type: functional; conditions: MTCC 2470, 24 h
[18] = tested on: Micrococcus luteus; test: Antibacterial activity against Micrococcus luteus MTCC 2470 after 24 hrs by well diffusion method; type: functional; conditions: MTCC 2470, 24 h
[19] = tested on: Staphylococcus aureus; test: Antibacterial activity against Staphylococcus aureus MTCC 96 after 24 hrs by well diffusion method; type: functional; conditions: MTCC 96, 24 h
[20] = tested on: Staphylococcus aureus; test: Bactericidal activity against Staphylococcus aureus MLS16 MTCC 2940 after 24 hrs by serial dilution method; type: functional; conditions: MLS16 MTCC 2940, 24 h
[21] = tested on: Micrococcus luteus; test: Induction of intracellular ROS accumulation in Micrococcus luteus MTCC 2470 sessile biofilm cells at 0.5 to 4 ug/ml after 24 hrs by DCFH-DA staining-based assay; type: functional, cell-based

MIC [1]: > 125 µg/mL
IC50 [4]: 4.1 µg/mL (≈ 7.63 µM)
MIC [9]: > 125 µg/mL
MIC [10]: 7.8 µg/mL (≈ 14.5 µM)
IC50 [11]: 4.4 µg/mL (≈ 8.19 µM)
MIC [13]: 7.8 µg/mL (≈ 14.5 µM)
IC50 [16]: 3.9 µg/mL (≈ 7.26 µM)
IC50 [17]: 1.8 µg/mL (≈ 3.35 µM)
MIC [18]: 3.9 µg/mL (≈ 7.26 µM)
MIC [19]: 7.8 µg/mL (≈ 14.5 µM)
Structure (SMILES): Cc1ccc(-c2nn(-c3ccccc3)cc2C2c3c(n(C)c(=O)n(C)c3=O)N=CN2c2ccc(Cl)cc2)cc1 (stereo unspecified)
MBC [2]: 7.8 µg/mL (≈ 14.5 µM)
MIC [3]: > 125 µg/mL
MBC [5]: 7.8 µg/mL (≈ 14.5 µM)
Activity [6]: Active
Ratio [7]: 2
Activity [8]: inactive
MBC [12]: 15.6 µg/mL (≈ 29 µM)
Ratio [14]: 2
Activity [15]: Active
MBC [20]: 31.2 µg/mL (≈ 58.1 µM)
Activity [21]: Active
